# Data from patent US11254668B2, “Pyrazolo[1,5-A]pyrazin-4-yl and related derivatives” (Pfizer Inc., priority 2017, dated 2022).
# pIC50: −log10 of the molar value. Like-named read-outs stand apart in the source and are kept apart here.
# Experiments:
# Assay type in all cases: biochemical
# [1] = biological target: JAK1 (Homo sapiens (Human), UniProt P23458); assay: JAK Caliper Enzyme Assay at 1 mM ATP, JAK1
# Description: (§1) Compounds of the invention were evaluated by in vitro methods to determine their respective ability to inhibit the JAK kinases (TYK2, JAK1, JAK2, JAK3).
# (§2) The human JAK inhibitory activity was determined by using a microfluidic assay to monitor phosphorylation of a synthetic peptide by the recombinant human kinase domain of each of the four members of the JAK family, JAK1, JAK2, JAK3 and TYK2. […] Each assay condition was optimized for enzyme concentration and room temperature incubation time to obtain a conversion rate of 20% to 30% phosphorylated peptide product. Reactions were terminated by the addition of stop buffer containing EDTA. Utilizing the LabChip 3000 mobility shift technology (Caliper Life Science), each assay reaction was sampled to determine the level of phosphorylation. This technology is separation-based, allowing direct detection of fluorescently labeled substrates and products. Separations are controlled by a combination of vacuum pressure and electric field strength optimized for each peptide substrate.
# (§3) JAK Caliper Enzyme Assay at 1mM ATP
# (§4) Compounds were added to a 384-well plate.
# (§5) The data was collected using the HTS Well Analyzer software from Caliper Life Sciences. The data output for data analysis is the percent product converted calculated on peak height (Equation 1). % product converted=100*((product)/(product+substrate)) Equation 1: […]
# (§6) The percent effect at each compound concentration was calculated based on the positive and negative control well contained within each assay plate (Equation 2). […] The negative control wells contained DMSO alone (at the same concentration as the compound wells) that was used to set the baseline activity in the assay (i.e., uninhibited JAK1, JAK2, JAK3 or TYK2). % effect=100*([…](positive control-negative control)) Equation 2: […]
# (§7) The percent effect was plotted against the compound concentration compound.
# [2] = biological target: TYK2 (Homo sapiens (Human), UniProt P29597); assay: JAK Caliper Enzyme Assay at 1 mM ATP, TYK2
# Description: as §1, §2, §3, §4, §5, §6, §7
# [3] = biological target: JAK3 (Homo sapiens (Human), UniProt P52333); assay: JAK Caliper Enzyme Assay at 1 mM ATP, JAK3
# Description: as §1, §2, §3, §4, §5, §6, §7
# Chain of TYK2 (P29597 897-1176): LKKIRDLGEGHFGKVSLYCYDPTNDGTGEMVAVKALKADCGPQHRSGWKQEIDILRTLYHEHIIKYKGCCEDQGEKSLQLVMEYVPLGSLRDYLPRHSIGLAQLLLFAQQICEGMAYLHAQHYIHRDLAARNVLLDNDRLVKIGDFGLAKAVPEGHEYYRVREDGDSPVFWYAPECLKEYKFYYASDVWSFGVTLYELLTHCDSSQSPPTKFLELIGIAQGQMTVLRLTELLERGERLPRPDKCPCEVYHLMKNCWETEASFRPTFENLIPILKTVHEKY
# Chain of JAK1 (P23458 875-1153): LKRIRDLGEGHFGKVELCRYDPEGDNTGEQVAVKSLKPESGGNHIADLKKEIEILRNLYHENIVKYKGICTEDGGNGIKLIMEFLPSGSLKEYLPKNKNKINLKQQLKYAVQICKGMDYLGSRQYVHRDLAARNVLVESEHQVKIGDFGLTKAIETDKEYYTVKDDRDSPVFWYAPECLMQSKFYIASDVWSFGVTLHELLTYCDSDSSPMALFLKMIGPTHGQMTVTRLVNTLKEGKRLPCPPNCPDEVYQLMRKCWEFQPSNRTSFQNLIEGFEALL
# Chain of JAK3 (P52333 822-1111): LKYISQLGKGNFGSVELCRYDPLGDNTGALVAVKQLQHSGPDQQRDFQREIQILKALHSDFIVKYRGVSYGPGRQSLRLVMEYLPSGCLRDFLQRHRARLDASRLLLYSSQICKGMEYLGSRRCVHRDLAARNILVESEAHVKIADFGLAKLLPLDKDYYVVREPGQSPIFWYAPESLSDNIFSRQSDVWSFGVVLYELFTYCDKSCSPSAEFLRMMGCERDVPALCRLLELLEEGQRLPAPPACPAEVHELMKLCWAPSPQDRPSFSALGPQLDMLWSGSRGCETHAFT
Compound,pIC50 [1],pIC50 [2],pIC50 [3],pIC50 ([1]; JAK Caliper enzyme assay),pIC50 ([3]; JAK Caliper enzyme assay),pIC50 ([2]; JAK Caliper enzyme assay)
"N#CCC1(n2ccc(-c3nc(-c4ccnnc4)cc4ncccc34)n2)CN(CC(F)(F)F)C1 [Example 233, [3-{3-[7-(pyridazin-4-yl)-1,6-naphthyridin-5-yl]-1H-pyrazol-1-yl}-1-(2,2,2-trifluoroethyl)azetidin-3-yl]acetonitrile]",5.02,6.46,< 5.00,–,–,–
"Cn1nc(-c2cc3ncccc3c(-c3ccn([C@]4(CC#N)C[C@@H](C#N)C4)n3)n2)cc1CO [Example 62, trans-3-(cyanomethyl)-3-(3-{7-[5-(hydroxymethyl)-1-methyl-1H-pyrazol-3-yl]-1,6-naphthyridin-5-yl}-1H-pyrazol-1-yl)cyclobutanecarbonitrile]",< 5.00,6.82,< 5.00,–,–,–
"N#CC[C@]1(n2ccc(-c3nc(-c4ccc(N)c(C(N)=O)n4)cc4ncccc34)n2)C[C@@H](C#N)C1 [Example 225, 3-amino-6-(5-{1-[trans-3-cyano-1-(cyanomethyl)cyclobutyl]-1H-pyrazol-3-yl}-1,6-naphthyridin-7-yl)pyridine-2-carboxamide]",6.67,8.05,< 5.00,–,–,–
"N#CCC1(n2ncc(-c3cc(-c4cccc(C(N)=O)c4)cc4ncccc34)n2)CC(C#N)C1 (stereo not drawn) [Example 431, 3-(5-{2-[cis-3-cyano-1-(cyanomethyl)cyclobutyl]-2H-1,2,3-triazol-4-yl}quinolin-7-yl)benzamide]",–,–,–,6.24,< 5.00,–
"N#CC[C@]1(n2ccc(-c3nc(-c4ccc(N)c(C(N)=O)n4)cc4ncccc34)n2)C[C@H](C#N)C1 [Example 224, 3-amino-6-(5-{1-[cis-3-cyano-1-(cyanomethyl)cyclobutyl]-1H-pyrazol-3-yl}-1,6-naphthyridin-7-yl)pyridine-2-carboxamide]",5.71,7.35,< 5.00,–,–,–
"CS(=O)(=O)N1CC(CC#N)(n2ncc(-c3cc(-c4c[nH]c5nccc-5c4)cc4ncccc34)n2)C1 [Example 415, [1-(methylsulfonyl)-3-{4-[7-(7H-pyrrolo[2,3-b]pyridin-5-yl)quinolin-5-yl]-2H-1,2,3-triazol-2-yl}azetidin-3-yl]acetonitrile]",–,–,–,< 5.00,< 5.00,5.96
"COc1nc(-c2cc(-c3cnn([C@]4(CC#N)C[C@H](C#N)C4)c3)n3ccnc3c2)ccc1N [Example 471, cis-3-{4-[7-(5-amino-6-methoxypyridin-2-yl)imidazo[1,2-a]pyridin-5-yl]-1H-pyrazol-1-yl}-3-(cyanomethyl)cyclobutanecarbonitrile]",–,–,–,6.20,< 5.00,7.48
"N#CC[C@]1(n2ncc(-c3cc(-c4cccc(C(N)=O)n4)cc4ncccc34)n2)C[C@H](C#N)C1 [Example 349, 6-(5-{2-[trans-3-cyano-1-(cyanomethyl)cyclobutyl]-2H-1,2,3-triazol-4-yl}quinolin-7-yl)pyridine-2-carboxamide]",6.13,7.77,< 5.00,–,–,–
"N#CC[C@]1(n2ncc(-c3cc(-c4cccc(C(N)=O)c4)cc4ncccc34)n2)C[C@@H](C#N)C1 [Example 432, 3-(5-{2-[trans-3-cyano-1-(cyanomethyl)cyclobutyl]-2H-1,2,3-triazol-4-yl}quinolin-7-yl)benzamide]",–,–,–,5.41,< 5.00,–
"Cn1cnc(-c2cc3ncccc3c(-c3ccn(C4(CC#N)CN(CC(F)(F)F)C4)n3)n2)c1 [Example 149, [3-{3-[7-(1-methyl-1H-imidazol-4-yl)-1,6-naphthyridin-5-yl]-1H-pyrazol-1-yl}-1-(2,2,2-trifluoroethyl)azetidin-3-yl]acetonitrile]",< 5.00,6.90,< 5.00,–,–,–

# Other lines, results leading:
pIC50 [1],pIC50 [2],pIC50 [3],pIC50 ([1]; JAK Caliper enzyme assay),pIC50 ([3]; JAK Caliper enzyme assay),pIC50 ([2]; JAK Caliper enzyme assay),Compound
7.37,7.92,6.20,–,–,–,"CCn1cc(-c2cc3ncccc3c(-c3ccn(C4(CC#N)CC(C#N)C4)n3)n2)cn1 (stereo not drawn) [Example 112, cis-3-(cyanomethyl)-3-{3-[7-(1-ethyl-1H-pyrazol-4-yl)-1,6-naphthyridin-5-yl]-1H-pyrazol-1-yl}cyclobutanecarbonitrile]"
5.80,7.74,< 5.00,–,–,–,"Cn1nc(-c2cc3ncccc3c(-c3ccn([C@]4(CC#N)C[C@@H](C#N)C4)n3)n2)cc1N [Example 65, trans-3-{3-[7-(5-amino-1-methyl-1H-pyrazol-3-yl)-1,6-naphthyridin-5-yl]-1H-pyrazol-1-yl}-3-(cyanomethyl)cyclobutanecarbonitrile]"
5.56,7.18,< 5.00,–,–,–,"N#CCC1(n2ccc(-c3nc(-c4cccnc4)cc4ncccc34)n2)CN(CC(F)(F)F)C1 [Example 171, [3-{3-[7-(pyridin-3-yl)-1,6-naphthyridin-5-yl]-1H-pyrazol-1-yl}-1-(2,2,2-trifluoroethyl)azetidin-3-yl]acetonitrile]"
7.68,7.82,5.95,–,–,–,"N#CC[C@]1(n2cc(-c3nc(-c4cnn(CCO)c4)cc4ncccc34)cn2)C[C@@H](C#N)C1 [Example 6, cis-3-(cyanomethyl)-3-(4-{7-[1-(2-hydroxyethyl)-1H-pyrazol-4-yl]-1,6-naphthyridin-5-yl}-1H-pyrazol-1-yl)cyclobutanecarbonitrile]"
5.79,7.44,< 5.00,–,–,–,"Cc1cc(-c2cc3ncccc3c(-c3ccn(C4(CC#N)CN(CC(F)(F)F)C4)n3)n2)n[nH]1 [Example 42, [3-{3-[7-(5-methyl-1H-pyrazol-3-yl)-1,6-naphthyridin-5-yl]-1H-pyrazol-1-yl}-1-(2,2,2-trifluoroethyl)azetidin-3-yl]acetonitrile]"
5.06,6.63,< 5.00,–,–,–,"N#CCC1(n2ccc(-c3nc(-c4ncc[nH]4)cc4ncccc34)n2)CN(CC(F)(F)F)C1 [Example 148, [3-{3-[7-(1H-imidazol-2-yl)-1,6-naphthyridin-5-yl]-1H-pyrazol-1-yl}-1-(2,2,2-trifluoroethyl)azetidin-3-yl]acetonitrile]"
5.31,7.13,< 5.00,–,–,–,"CS(=O)(=O)N1CC(CC#N)(n2ccc(-c3nc(-c4ccnc(O)c4)cc4ncccc34)n2)C1 [Example 186, [3-{3-[7-(2-hydroxypyridin-4-yl)-1,6-naphthyridin-5-yl]-1H-pyrazol-1-yl}-1-(methylsulfonyl)azetidin-3-yl]acetonitrile]"
6.17,7.77,5.18,–,–,–,"Cn1nc(-c2cc3ncccc3c(-c3ccn([C@]4(CC#N)C[C@H](C#N)C4)n3)n2)cc1CO [Example 63, cis-3-(cyanomethyl)-3-(3-{7-[5-(hydroxymethyl)-1-methyl-1H-pyrazol-3-yl]-1,6-naphthyridin-5-yl}-1H-pyrazol-1-yl)cyclobutanecarbonitrile]"
6.54,7.80,5.48,–,–,–,"N#CCC1(n2ncc(-c3cc(-c4cc[nH]n4)cc4ncccc34)n2)CN(S(N)(=O)=O)C1 [Example 300, 3-(cyanomethyl)-3-{4-[7-(1H-pyrazol-3-yl)quinolin-5-yl]-2H-1,2,3-triazol-2-yl}azetidine-1-sulfonamide]"
6.96,7.70,5.19,–,–,–,"CS(=O)(=O)Nc1ccc(-c2cc3ncccc3c(-c3ccn([C@]4(CC#N)C[C@H](C#N)C4)n3)n2)cc1 [Example 257, N-[4-(5-{1-[trans-3-cyano-1-(cyanomethyl)cyclobutyl]-1H-pyrazol-3-yl}-1,6-naphthyridin-7-yl)phenyl]methanesulfonamide]"
5.23,7.51,< 5.00,–,–,–,"Cn1cc(-c2cc(-c3cnn([C@]4(CC#N)C[C@@H](C#N)C4)n3)c3cccnc3c2)c(N)n1 [Example 333, trans-3-{4-[7-(3-amino-1-methyl-1H-pyrazol-4-yl)quinolin-5-yl]-2H-1,2,3-triazol-2-yl}-3-(cyanomethyl)cyclobutanecarbonitrile]"
6.39,7.66,5.05,–,–,–,"CCn1cc(-c2cc3ncccc3c(-c3ccn([C@]4(CC#N)C[C@@H](C#N)C4)n3)n2)cn1 [Example 113, trans-3-(cyanomethyl)-3-{3-[7-(1-ethyl-1H-pyrazol-4-yl)-1,6-naphthyridin-5-yl]-1H-pyrazol-1-yl}cyclobutanecarbonitrile]"
5.77,6.62,< 5.00,–,–,–,"CC(=O)N(C)[C@H]1C[C@](CC#N)(n2ccc(-c3nc(-c4cc[nH]n4)cc4ncccc34)n2)C1 [Example 34, N-[cis-3-(cyanomethyl)-3-{3-[7-(1H-pyrazol-3-yl)-1,6-naphthyridin-5-yl]-pyrazol-1-yl}cyclobutyl]-N-methylacetamide]"
5.77,7.80,< 5.00,–,–,–,"Cn1cc(-c2cc(-c3cnn([C@]4(CC#N)C[C@H](C#N)C4)n3)c3cccnc3c2)c(N)n1 [Example 332, cis-3-{4-[7-(3-amino-1-methyl-1H-pyrazol-4-yl)quinolin-5-yl]-2H-1,2,3-triazol-2-yl}-3-(cyanomethyl)cyclobutanecarbonitrile]"
